Measurements from patent publication US11993596B2, “Fused tri-cyclic compound as PDE3/PDE4 dual inhibitor” (CHIA TAI TIANQING PHARMACEUTICAL GROUP CO., LTD., priority 2018, dated 2024).

Assays:
[1] = reported in literature; cited from earlier work
[2] = reported in literature; cited from earlier work; remark: listed apart in the source
[3] = tested on: TNF-α in human peripheral blood mononuclear cells (hPBMCs); assay: Inhibitory activity against TNF-α in human peripheral blood mononuclear cells; type: cell-based; details: PBMC, TNF-α in supernatant, 1 ng/mL LPS, 24 hours, read-out: hPBMC IC50
Excerpt: In Vitro Detection of the Inhibitory Activity of Compounds Against TNF-α in Human Peripheral Blood Mononuclear Cells
Experimental objective: to express the anti-inflammatory activity at the cellular level of the test compound based on the level of TNF-α in human peripheral blood mononuclear cells (hPBMCs).
Procedure: • 1. Normal human whole blood was collected into an EDTA anticoagulation tube; • 2. The PBMCs were separated by Ficoll density gradient centrifugation, and then counted. The cell concentration was adjusted to 2×10^6/mL; • 3. To each well of a U-bottomed 96-well plate were added 2×10^5 cells, 1 ng/mL LPS, and DMSO solutions of compound at concentrations of 100 μM, 10 μM, 1 μM, 100 nM, 10 nM, 1 nM, 100 pM and 10 pM, 200 μL per well; • 4. The mixture was incubated for 24 hours, and then the supernatant was collected; • 5. The level of TNF-α in supernatant was detected by ELIZA, Graphpad Prism software was used to fit inhibition curves and IC50 was calculated.

[4] = biological target: CYP2C19 (Homo sapiens (Human), UniProt P33261); assay: Inhibition of human liver microsomal cytochrome P450 isoenzyme CYP2C19; type: in vitro ADME; details: human liver microsomes, probe substrate (S)-mephenytoin
Procedure: (§1) Inhibitory Effect on the Activity of Isoenzymes (CYP1A2, CYP2C9, CYP2C19, CYP2D6 and CYP3A4) of Human Liver Microsomal Cytochrome P450
(§2) A total of 5 specific probe substrates of 5 isoenzymes of CYP, namely phenacetin (CYP1A2), diclofenac (CYP2C9), (S)-mephenytoin (CYP2C19), dextromethorphan (CYP2D6) and midazolam (CYP3A4) are each co-incubated with human liver microsomes and test compound, and then reduced nicotinamide adenine dinucleotide phosphate (NADPH) was added to initiate the reaction.

[5] = biological target: CYP2D6 (Homo sapiens (Human), UniProt P10635); assay: Inhibition of human liver microsomal cytochrome P450 isoenzyme CYP2D6; type: in vitro ADME; details: human liver microsomes, probe substrate dextromethorphan
Procedure: as §1, §2

[6] = biological target: CYP3A4 (Homo sapiens (Human), UniProt P08684); assay: Inhibition of human liver microsomal cytochrome P450 isoenzyme CYP3A4; type: in vitro ADME; details: human liver microsomes, probe substrate midazolam
Procedure: as §1, §2

[7] = biological target: CYP1A2 (Homo sapiens (Human), UniProt P05177); assay: biochemical; type: in vitro ADME
Procedure: as §1, §2

[8] = biological target: CYP2C9 (Homo sapiens (Human), UniProt P11712); assay: Inhibition of human liver microsomal cytochrome P450 isoenzyme CYP2C9; type: in vitro ADME; details: human liver microsomes, probe substrate diclofenac
Procedure: as §1, §2

[9] = Pharmacokinetic experiment in beagle dogs; type: in vivo; details: male, dog, plasma
Procedure: Pharmacokinetic Experiment in Beagle Dogs
In this study, male beagle dogs were selected as test animals, and liquid chromatography-tandem mass spectrometry (LC-MS/MS) method was used for quantitatively measuring the drug concentration in plasma of beagle dogs at different time points after intravenous injection or oral administration of compound WX036 so as to evaluate the pharmacokinetic characteristics of the compound WX036 in beagle dogs.
The clear solution of compound WX036 was injected into two 10-12 kg beagle dogs via the cephalic vein or saphenous vein, and the clear solution of test compound was administered intragastrically to two 10-12 kg beagle dogs (overnight fasted). The animals were all subjected to approximately 500 μL of blood collection each time from peripheral veins at 0.0333, 0.0833, 0.25, 0.5, 1, 2, 4, 6, 8, and 24 hours post-dose, and the blood was transferred into commercial centrifuge tubes containing 0.85-1.15 mg of K2 EDTA*2H2O anticoagulant, and plasma was taken by centrifugation at 3000 g for 10 minutes at 4° C. The plasma concentration was measured by LC-MS/MS method, and the relevant pharmacokinetic parameters were calculated by WinNonlin™ Version 6.3 (Pharsight, Mountain View, CA) pharmacokinetic software using non-compartmental model linear logarithmic trapezoid method.

[10] = intravenous injection 0.5 mg/kg

Chain of CYP1A2 (P05177 whole entry): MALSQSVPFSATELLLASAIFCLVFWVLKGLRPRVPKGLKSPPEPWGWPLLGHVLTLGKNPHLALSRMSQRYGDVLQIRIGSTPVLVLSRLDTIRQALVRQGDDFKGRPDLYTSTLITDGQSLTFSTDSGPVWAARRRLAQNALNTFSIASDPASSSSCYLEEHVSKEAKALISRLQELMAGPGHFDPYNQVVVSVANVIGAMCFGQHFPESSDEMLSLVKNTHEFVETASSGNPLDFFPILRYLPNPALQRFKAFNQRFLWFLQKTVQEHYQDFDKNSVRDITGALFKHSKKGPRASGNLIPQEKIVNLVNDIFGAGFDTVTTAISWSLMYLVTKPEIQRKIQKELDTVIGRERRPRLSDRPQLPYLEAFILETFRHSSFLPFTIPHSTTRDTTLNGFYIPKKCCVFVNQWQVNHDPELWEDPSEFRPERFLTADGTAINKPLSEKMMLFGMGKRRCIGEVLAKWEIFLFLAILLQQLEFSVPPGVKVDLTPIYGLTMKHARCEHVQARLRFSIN
Chain of CYP3A4 (P08684 whole entry): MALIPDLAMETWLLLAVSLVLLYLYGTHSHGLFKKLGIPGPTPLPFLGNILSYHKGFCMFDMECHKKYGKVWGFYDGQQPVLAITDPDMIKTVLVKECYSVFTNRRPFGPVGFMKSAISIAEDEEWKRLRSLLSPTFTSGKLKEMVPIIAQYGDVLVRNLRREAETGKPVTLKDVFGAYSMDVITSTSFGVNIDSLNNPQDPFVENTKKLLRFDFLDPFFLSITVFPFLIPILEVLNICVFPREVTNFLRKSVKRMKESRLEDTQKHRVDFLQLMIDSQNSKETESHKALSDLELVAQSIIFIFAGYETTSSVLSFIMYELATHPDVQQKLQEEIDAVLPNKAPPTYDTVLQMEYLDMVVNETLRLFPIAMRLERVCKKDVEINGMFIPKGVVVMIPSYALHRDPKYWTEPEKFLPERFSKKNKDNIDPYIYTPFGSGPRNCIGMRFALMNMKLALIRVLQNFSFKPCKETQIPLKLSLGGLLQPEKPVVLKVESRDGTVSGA
Chain of CYP2D6 (P10635 whole entry): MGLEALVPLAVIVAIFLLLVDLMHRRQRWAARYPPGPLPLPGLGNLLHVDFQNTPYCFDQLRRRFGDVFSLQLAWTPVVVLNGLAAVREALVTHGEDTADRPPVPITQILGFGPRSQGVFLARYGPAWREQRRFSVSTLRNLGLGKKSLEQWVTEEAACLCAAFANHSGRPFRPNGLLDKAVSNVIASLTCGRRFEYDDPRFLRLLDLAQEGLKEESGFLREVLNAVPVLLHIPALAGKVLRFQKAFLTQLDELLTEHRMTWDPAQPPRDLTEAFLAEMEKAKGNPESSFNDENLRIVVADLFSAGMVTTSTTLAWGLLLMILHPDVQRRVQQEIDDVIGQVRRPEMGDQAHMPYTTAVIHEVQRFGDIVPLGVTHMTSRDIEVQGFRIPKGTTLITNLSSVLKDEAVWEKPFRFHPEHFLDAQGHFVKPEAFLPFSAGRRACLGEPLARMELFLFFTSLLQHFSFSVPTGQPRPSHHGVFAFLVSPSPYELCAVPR
Chain of CYP2C19 (P33261 whole entry): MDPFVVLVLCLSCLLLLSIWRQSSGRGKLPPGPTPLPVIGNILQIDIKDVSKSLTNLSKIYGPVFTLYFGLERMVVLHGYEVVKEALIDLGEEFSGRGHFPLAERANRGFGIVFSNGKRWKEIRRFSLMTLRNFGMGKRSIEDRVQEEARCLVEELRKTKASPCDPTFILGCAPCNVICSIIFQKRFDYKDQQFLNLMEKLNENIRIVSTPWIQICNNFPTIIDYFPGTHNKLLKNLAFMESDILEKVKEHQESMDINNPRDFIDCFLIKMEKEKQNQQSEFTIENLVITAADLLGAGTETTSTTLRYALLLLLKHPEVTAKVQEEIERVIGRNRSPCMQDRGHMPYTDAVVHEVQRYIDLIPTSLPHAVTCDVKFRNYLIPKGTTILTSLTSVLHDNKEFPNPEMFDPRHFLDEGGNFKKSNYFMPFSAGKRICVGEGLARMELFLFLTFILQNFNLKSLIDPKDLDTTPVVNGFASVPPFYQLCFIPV
Chain of CYP2C9 (P11712 whole entry): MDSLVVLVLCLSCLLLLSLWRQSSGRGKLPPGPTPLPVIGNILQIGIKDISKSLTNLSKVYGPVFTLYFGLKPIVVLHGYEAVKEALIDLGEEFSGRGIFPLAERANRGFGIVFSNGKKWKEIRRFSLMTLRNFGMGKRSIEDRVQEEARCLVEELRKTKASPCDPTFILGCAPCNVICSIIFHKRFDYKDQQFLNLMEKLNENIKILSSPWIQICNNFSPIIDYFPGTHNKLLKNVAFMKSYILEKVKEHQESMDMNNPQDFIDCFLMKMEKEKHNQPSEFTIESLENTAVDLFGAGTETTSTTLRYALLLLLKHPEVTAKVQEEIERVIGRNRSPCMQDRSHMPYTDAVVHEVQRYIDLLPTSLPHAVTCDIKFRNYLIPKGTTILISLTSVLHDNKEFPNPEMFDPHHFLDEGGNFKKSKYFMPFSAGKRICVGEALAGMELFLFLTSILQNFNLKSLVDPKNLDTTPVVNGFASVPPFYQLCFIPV

## COc1cc2c(cc1OC)-c1c/c(=N\c3c(C)cc(C)cc3C)n(CCNC(N)=O)c(=O)n1CC2 [RPL554]
[1]
  solubility: poor
[2]
  plasma clearance: high

## CCOc1cc2c(cc1OC)-c1c/c(=N\c3c(C)cc(C)cc3C)n(CCNc3nc[nH]n3)c(=O)n1CC2 [WX003]
[3]
  IC50: 3.1 nM

## CCOc1cc2c(cc1OC)-c1c/c(=N\c3c(C)cc(C)cc3C)n(CCNC(=O)c3[nH]nnc3OC)c(=O)n1CC2 [WX026]
[4]
  IC50: 50 µM
[5]
  IC50: 50 µM
[6]
  IC50: 16 µM
[7]
  IC50: 50 µM
[8]
  IC50: 20 µM

## CCOc1cc2c(cc1OC)-c1c/c(=N\c3c(C)cc(C)cc3C)n(CCNC(=O)c3c(O)nnn3C)c(=O)n1CC2 [WX036]
[4]
  IC50: 50 µM
[5]
  IC50: 50 µM
[6]
  IC50: 50 µM
[7]
  IC50: 50 µM
[9]; [10]
  clearance: 4.22 L/h/kg
  half-life: 18 min
[9]; oral administration 3 mg/kg
  bioavailability: 7.5%

## CCOc1cc2c(cc1OC)-c1c/c(=N\c3c(C)cc(C)cc3C)n(CCNc3nc[nH]n3)c(=O)n1CCC2 [WX004]
[3]
  IC50: 0.33 nM

## CCOc1cc2c(cc1OC)-c1c/c(=N\c3c(C)cc(C)cc3C)n(CCNC(=O)c3nnc[nH]3)c(=O)n1CCC2 [WX047]
[3]
  IC50: 0.25 nM

## CCOc1cc2c(cc1OC)-c1c/c(=N\c3c(C)cc(C)cc3C)n(CCNC(=O)c3cnn[nH]3)c(=O)n1CC2 [WX016]
[3]
  IC50: 2.8 nM

## COc1cc2c(cc1OC)-c1cc(Oc3c(C(C)C)cccc3C(C)C)nc(=O)n1CC2 [RPL565]
[1]
  solubility: poor
[2]
  plasma clearance: high

## CCOc1cc2c(cc1OC)-c1c/c(=N\c3c(C)cc(C)cc3C)n(CCC(=O)Nc3nnc[nH]3)c(=O)n1CC2 [WX054]
[3]
  IC50: 1.8 nM

## CCOc1cc2c(cc1OC)-c1c/c(=N\c3c(C)cc(C)cc3C)n(CCNC(=O)c3ccn[nH]3)c(=O)n1CC2 [WX018]
[3]
  IC50: 0.09 nM

## CCOc1cc2c(cc1OC)-c1c/c(=N\c3c(C)cc(C)cc3C)n(CCNC(=O)c3nnc[nH]3)c(=O)n1CC2 [WX015]
[3]
  IC50: 0.36 nM
